This is an account of results in article PMC6150346, “Disrupting VEGF–VEGFR1 Interaction: De Novo Designed Linear Helical Peptides to Mimic the VEGF13-25 Fragment” (Molecules : A Journal of Synthetic Chemistry and Natural …, 2017).

Where two headings read alike, the source gives them in different places.

For assay [1], the target named is T1, extracellular domain (ECD, D1–D7) of VEGFR1 (Homo sapiens, UniProt P17948).
T1 construct: VEGFR-1 D1-D7 (ECD domain)/Fc Chimera; purchased Bio-techne R&D, Abingdon, UK
T1 sequence (P17948 27-758 limits assumed): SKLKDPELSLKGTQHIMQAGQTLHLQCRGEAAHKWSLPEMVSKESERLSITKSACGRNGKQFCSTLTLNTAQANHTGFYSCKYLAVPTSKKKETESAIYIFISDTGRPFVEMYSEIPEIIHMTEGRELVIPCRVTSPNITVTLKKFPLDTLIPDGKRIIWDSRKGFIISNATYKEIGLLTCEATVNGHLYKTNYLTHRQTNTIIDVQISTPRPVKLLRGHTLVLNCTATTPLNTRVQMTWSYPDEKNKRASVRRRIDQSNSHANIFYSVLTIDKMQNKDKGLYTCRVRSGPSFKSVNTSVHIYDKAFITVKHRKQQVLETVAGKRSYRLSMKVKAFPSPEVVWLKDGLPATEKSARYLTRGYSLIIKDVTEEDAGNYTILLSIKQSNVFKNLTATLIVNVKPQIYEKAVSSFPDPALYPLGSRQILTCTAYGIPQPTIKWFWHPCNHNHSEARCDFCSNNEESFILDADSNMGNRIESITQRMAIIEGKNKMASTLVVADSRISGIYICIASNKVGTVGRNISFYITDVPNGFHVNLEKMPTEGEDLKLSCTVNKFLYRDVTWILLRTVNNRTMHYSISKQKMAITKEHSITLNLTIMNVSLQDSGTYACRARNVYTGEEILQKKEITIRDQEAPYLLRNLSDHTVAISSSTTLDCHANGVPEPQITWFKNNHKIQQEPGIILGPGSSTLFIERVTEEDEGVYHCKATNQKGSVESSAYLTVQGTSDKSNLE
The assay is described as follows: Chemiluminescent competition (displacement) assay: biotinylated VEGF165 (VEGF-A) vs peptide on coated VEGFR1. The following applies: for % of Displacement, 100 μM: biotinylated VEGF-A (131 pM btVEGF165) displaced by 100 μM peptide on VEGFR1 ECD (D1–D7), PBS 1% DMSO, 3 h 37 °C; for % of Displacement, 100 μM / % of Displacement, 30 μM: chemiluminescence; for % of Displacement, 100 μM / % of Displacement, 30 μM / IC50: three experiments in triplicate; for % of Displacement, 30 μM + EDTA: biotinylated VEGF-A displaced by 30 μM peptide in the presence of EDTA on VEGFR1 ECD (D1–D7), to avoid false positives from metals or aggregation; for % of Displacement, 30 μM: biotinylated VEGF-A displaced by 30 μM peptide on VEGFR1 ECD (D1–D7); for IC50: dose–response displacement assay on VEGFR1, log(inhibitor) vs. response fit, GraphPad Prism, read-out: IC50 (95% Confident Interval), relative inhibitory concentration 50. In kind it is binding. As to the method: The binding studies were performed on VEGF isoform VEGF-A (VEGF165) that is the most commonly involved in pathological angiogenesis. Compounds were first evaluated for their ability to displace biotinylated VEGF-A at two different doses, 30 and 100 μM (Table 2). A chemiluminescent assay, relying on competition between tested compounds and biotinylated VEGF-A for binding to the extracellular domain of recombinant VEGFR1, was used.
As described by Muller Y. A. et al., the surface of white high-binding 96-well microplate (Corning Life Sciences, Amsterdam, The Netherlands) was coated with 100 μL of phosphate-buffered saline solution (PBS, pH 7.4) containing 200 ng/mL of VEGFR-1 D1-D7 (ECD domain)/Fc Chimera or 150 ng/mL of VEGFR1 D1-D3/Fc chimera (Bio-techne R&D, Abingdon, UK) and incubated at 4 °C overnight. After three washes with 250 μL of PBS 0.1%, (v/v) tween 20 (buffer A), the plate was blocked by 200 μL of PBS with 3% (w/v) of BSA and stirred at 37 °C for 2 h. The plate was washed three times with buffer A. Then, 100 μL of a solution containing 131 pM of btVEGF165 (Bio-techne, R&D, Abingdon, UK) and the tested compounds at various concentration diluted in PBS containing 1% DMSO were added in each well. After 3 h stirring at 37 °C, the plate was washed four times with buffer A and 100 μL of streptavidin-horseradish peroxidase (Amersham Biosciences, Little Chalfont, UK) diluted at 1:8000 in PBS containing 0.1% (v/v) Tween 20 and 0.3% (w/v) BSA were added per well. After 1 h of incubation at 37 °C under obscurity and stirring, the plate was washed five times with 250 μL of buffer A and 100 μL of SuperSignal West Pico chemiluminescent substrate (Pierce, Appleton, WI, USA) were added. The remaining bt-VEGF165 was detected by chemiluminescence, which was quantified. The percentages of btVEGF165 displacement were calculated by the following formula: percentage of displacement = 100 × [1 − (S − NS)/(MS − NS)], where S is the signal measured, NS is the nonspecific binding signal and MS is the maximum binding signal observed with btVEGF165 without compounds tested. […] Each experiment was performed three times in triplicate.

The target in assay [2] is T1, extracellular domain (ECD, D1–D7) of VEGFR1. The following applies: cited from earlier work.

Consider Ac-SSEEFARNWAAFN-NH2 [Compound 12], for which, in assay [1], the “% of Displacement, 100 μM” value stood at 55 ± 1%; the “% of Displacement, 30 μM + EDTA” value is listed as 53 ± 4%; the “% of Displacement, 30 μM” value was determined as 66 ± 1%; the IC50 was 48.6 µM.

Regarding Ac-SSEEFARNWAAIN-NH2 [Compound 29], in assay [1], the “% of Displacement, 100 μM” value stood at 72 ± 1%; the “% of Displacement, 30 μM + EDTA” value is 71 ± 2%; the “% of Displacement, 30 μM” value stood at 60 ± 3%; the IC50 came out at 0.046 µM.

With Ac-SSEEYARNWAAWN-NH2 [Compound 8], in assay [1], the “% of Displacement, 100 μM” value came out at 63 ± 2%; the “% of Displacement, 30 μM + EDTA” value was 40 ± 7%; the “% of Displacement, 30 μM” value came to 63 ± 1%; the IC50 was determined as 25.6 µM.

Consider Ac-SSEEWARNFAAFN-NH2 [Compound 10], for which, in assay [1], the “% of Displacement, 100 μM” value amounted to 55 ± 1%; the “% of Displacement, 30 μM + EDTA” value stood at 55 ± 4%; the “% of Displacement, 30 μM” value was 64 ± 3%; the IC50 is 14.5 µM.

As to Ac-SSEEWARNYAAFN-NH2 [Compound 16], in assay [1], the “% of Displacement, 100 μM” value is reported as 62 ± 1%; the “% of Displacement, 30 μM + EDTA” value was 44 ± 5%; the “% of Displacement, 30 μM” value amounted to 71 ± 2%; the IC50 was 21.3 µM.

In the case of Ac-SSEEFARNIAAYN-NH2 [Compound 32], in assay [1], the “% of Displacement, 100 μM” value amounted to 60 ± 1%; the “% of Displacement, 30 μM + EDTA” value was 55 ± 1%; the “% of Displacement, 30 μM” value came to 59 ± 4%; the IC50 stood at 30.4 µM.

Turning to Ac-SSEEYARNWAAFN-NH2 [Compound 14], in assay [1], the “% of Displacement, 100 μM” value amounted to 58 ± 1%; the “% of Displacement, 30 μM + EDTA” value is listed as 56 ± 6%; the “% of Displacement, 30 μM” value is 62 ± 4%; the IC50 came to 14 µM.

With “Ac-KLTWQELYQLKYKGI-NH2 [QK, proangiogenic peptide of D'Andrea and co-workers]”, the IC50 in assay [2] (displacement of biotinylated VEGF165 from VEGFR1 ECD, previous study, read-out: IC50 (relative inhibitory concentration 50)) is 32 ± 8 µM. Further, the “% of Displacement, 100 μM” value in assay [2] (percentage of biotinylated VEGF165 displaced by 100 μM peptide on whole extracellular domain (ECD, D1–D7) of VEGFR1, previously described peptides) was 69 ± 3%.
